Common to all, as to type: in vivo
Holding throughout (settings): 20 g/ha, 15 DAA

For assay [1], the system named is AMARE=Amaranthus retroflexus. Put plainly: Weed control field trial AMARE. An excerpt: (§1) The respective (combinations of) materials were applied to weed plants in the greenhouse or in the field at the respective growth stage indicated hereinafter for the different weed species mentioned below. The respective (combinations of) active ingredients were also applied to corn, cotton and soybean crop plants, and the selectivity (damage) in these crop plants rated (assessed).
(§2) Visual scoring of the damage to the trial plants took place after the time mentioned in the respective Table—indicated in number of Days After Application (DAA). Damage and development of all above-ground parts of the respective plants was recorded. Visual rating was done on a percentage scale in relation to the untreated control (100%=all plants dead; 50%=green plant biomass reduced by 50%, and 0%=no discernible difference=like control plot).
(§3) wherein • A, B=respective value in percent of active ingredient A at a dose rate of a g/ha, ingredient B at a dose rate of b g/ha • E^C=Expected value according to Colby (S. R. Colby; Weeds 15 (1967), 20-22) in % at a dose rate of a+b, each in g/ha • Δ=Difference (in %) between measured value E and expected value E^C (%) (measured value minus expected value)
(§4) After the harmful plants had emerged, they were treated, at the respective growth stage indicated, with the respective materials as indicated at a water application rate of 187 L/ha.
(§5) After the treatment (15 days after the treatment), the herbicidal activity of respective material was scored visually at the same time by comparing the differently treated plots with the untreated control plots. The score figures of the different plots were averaged.
(§6) The dose rates of herbicidal ingredients used in each case are indicated for the respective active ingredient and refer to the amount of active ingredient per hectare (g/ha).
(§7) The weed control activity of different (combinations of) herbicidal active ingredients was investigated in field trials for the following weed species: • AMARE=Amaranthus retroflexus • KCHSC=Kochia scoparia • PANRA=Panicum ramosum
(§8) The growth stage of AMARE was BBCH 19, the growth stage of KCHSC was BBCH 19 and the growth stage of PANRA was BBCH 22 at the time of application of the respective material.
(§9) Phenmedipham and the respective aroylcyclohexanedione herbicide were applied at varying application rates (Dose Rate) to the different species of weed plants. The results are shown in Tables 4a to 4d as the % control when assessed 15 days after application (DAA), respectively.
(§10) In all the trials of Tables 4a to 4d Mero® (rapeseed oil methyl ester) was added to the respective spray mixture in an amount corresponding to 1 L/ha for PMP, 1 L/ha for the respective aroylcyclohexanedione herbicide, and 2 L/ha for mixtures of PMP+the respective aroylcyclohexanedione herbicide.

A further assay relates to KCHSC=Kochia scoparia. Put plainly: Weed control field trial KCHSC.
Description: as §1, §2, §3, §4, §5, §6, §7, §8, §9, §10

The test system of the next assay is PANRA=Panicum ramosum. Put plainly: Weed control field trial PANRA.
Description: as §1, §2, §3, §4, §5, §6, §7, §8, §9, §10

Each structure is given as a SMILES string.

Consider `CS(=O)(=O)c1ccc(C(=O)C2C(=O)CCCC2=O)c(Cl)c1COCC(F)(F)F` [TBT, 2-{2-chloro-4-(methylsulfonyl)-3-[(2,2,2-trifluoroethoxy)methyl]benzoyl}cyclohexane-1,3-dione], for which the “% control AMARE” value in assay [1] was 35%. The “% control KCHSC” value in the assay with KCHSC=Kochia scoparia is recorded as 20%. Moreover, the “% control PANRA” value in the assay with PANRA=Panicum ramosum is 20%.

Regarding `CS(=O)(=O)c1ccc(C(=O)C2C(=O)CCCC2=O)c(Cl)c1` [SCT, 2-[2-chloro-4-(methylsulfonyl)benzoyl]cyclohexane-1,3-dione], in assay [1], the “% control AMARE” value worked out at 5%. Further, the “% control KCHSC” value with KCHSC=Kochia scoparia came to 5%.

For the origin of these results see patent US20250040554A1, “NEW USES OF PHENMEDIPHAM AND HERBICIDAL COMBINATIONS COMPRISING PHENMEDIPHAM” (BAYER AKTIENGESELLSCHAFT, priority 2021, published 2025).
